Measurements: US5945415A, “(R)-5-bromo-N-(1-ethyl-4-methylhexahydr o-1H-1,4-diazepin-6-yl)-2-methoxy-6-methylamino-3-pyridinecarboxamide, process for producing the same and medicinal composition containing the same” (priority 1995, dated 1999)
Where a name gives a salt, the structure may show the parent alone. Read-outs that look alike come from different tables or passages of the source.

Assays:
[1] = system: apomorphine-induced emesis; assay: Inhibitory effect on apomorphine-induced emesis in dog; assay type: in vivo, Beagle dogs; conditions: Canis lupus familiaris, read-out: ED50 apomorphine-induced emesis, dog
Description: Inhibitory Effect on Apomorphine-induced Emesis
Three to four Beagle dogs (body weight: 8-15 kg) per group were used to examine the inhibitory effect of the test compounds on apomorphine-inducedemesis. This test has been commonly conducted as a method for detecting dopamine blocker. Each of the test animals was orally administered with a prescribed dose of a test compound as dissolved or suspended in 0.5% tragacanth solution, and two hours thereafter, was administered with apomorphine hydrochloride (0.3 mg/kg) by subcutaneous injection at the back.

[2] = system: cisplatin-induced emesis; assay: Effect on cisplatin-induced emesis in ferrets; assay type: in vivo, Male ferrets; conditions: Mustela putorius, 0.5 h, read-out: ED50 cisplatin-induced emesis, ferret
Description: Effect on Cisplatin-induced Emesis in Ferrets
Male ferrets (Marshall Lab., U.S.A.) weighing approximately 1 kg were used. For intravenous injection, a cannule was implanted in the cervical vein under pentobarbital anethesia, 3-4 days in advance of the experiment. To each test group each a prescribed dose of a test compound as dissolved or suspended in 0.5% tragacanth solution was orally administered, and 30 minutes thereafter, cisplatin (Sigma) 10 mg/kg (physiological salt solution, 3 ml/kg) was administered intravenously through the cannule.

[3] = system: cisplatin-induced emesis; assay: Effect on cisplatin-induced emesis in dog; assay type: in vivo, Beagle dogs; conditions: Canis lupus familiaris, 0.5 h, read-out: ED50 cisplatin-induced emesis, dog
Description: Effect on Cisplatin-induced Emesis in Dog
Four to five Beagle dogs (body weight: 10-12 kg) per group were used to examine the inhibitory effect of the test compounds on cisplatin-induced emesis. To each test group each a prescribed dose of a test compound as dissolved or suspended in 0.5% tragacanth solution was orally administered, and 30 minutes thereafter, cisplatin (Sigma) 3 mg/kg (physiological salt solution, 3 ml/kg) was intravenously administered.

[4] = Inhibitory effect on exploratory activity; design: species or system Male mice (Std-ddy strain); conditions: mouse, in vivo; mice, oral, 2 hours after administration, counts for 3 minutes; read-out: ED50 inhibition of exploratory activity
Description: Inhibitory Effect on Exploratory Activity
Male mice (5 per group, Std-ddy strain, weighing 20-25 g) were used as the test animals, each of which was orally administered with a test compound which was dissolved or suspended in 0.5% tragacanth solution and after 2 hours from the administration put in a test cage (23×35×30 cm) on Animex activity meter (Farad Co.). Exploratory activity of each mouse was counted for the following 3 minutes. The mean counts of exploratory activities (count/3 min.) per group of the tested mice was compared with that of the control group to calculate the inhibition rate, and the effective dose (ED50 value) of each test compound for 50% inhibition was determined by probit analysis.

[5] = biological target: Dopamine D2 receptor (Rattus norvegicus, UniProt P61169); assay: biochemical
Description: (§1) Dopamine D2 receptor-binding and serotonin S3 receptor-binding activities (in vitro receptor binding assay)
(§2) Crude synaptosome fractions prepared from rat brain were used as receptor samples, and [^3 H] spiperone (D2) and [^3 H] quipazine (S3), as labelled ligands. A buffer solution containing each of the receptor sample and labelled ligand (final volume: 1 ml) was incubated for a prescribed period in the presence of one of the test compounds at various concentration levels, and thereafter the radioactive ligand bound to the receptor was isolated onto a filter using a cell-harvester (Brandel Co.) and radioactivity on each filter was measured with a liquid scintillation counter to determine the total amount bound to the receptor. Specifically bound amount was calculated by subtracting non-specifically bound amount from the total amount bound, said non-specifically bound amount being that bound under the presence of an excessive amount of non-labelled ligand [spiperone (D2) and [^3 H] quipazine (S3)] which was concurrently measured. The concentration level of the test compound at which specific binding of labelled ligand was inhibited by 50% (IC50 value) was calculated by probit analysis.

[6] = biological target: T1, serotonin S3 (5-HT3) receptor (Rattus norvegicus, UniProt P35563); assay: Inhibitory effect on von Bezold-Jarisch reflex (anti-serotonin S3 activity); assay type: in vivo, Male Wister rats; design: Male Wister rats weighing 250-350 g were anesthetized with urethane; from tissue; host or cells: whole animal in vivo (male Wistar rats); conditions: 0.05 h, test compound intravenous 3 minutes before 2-methylserotonin 10-30 μg/kg i.v., read-out: ED50 von Bezold-Jarisch Reflex Inhibition
T1 sequence (P35563 24-483): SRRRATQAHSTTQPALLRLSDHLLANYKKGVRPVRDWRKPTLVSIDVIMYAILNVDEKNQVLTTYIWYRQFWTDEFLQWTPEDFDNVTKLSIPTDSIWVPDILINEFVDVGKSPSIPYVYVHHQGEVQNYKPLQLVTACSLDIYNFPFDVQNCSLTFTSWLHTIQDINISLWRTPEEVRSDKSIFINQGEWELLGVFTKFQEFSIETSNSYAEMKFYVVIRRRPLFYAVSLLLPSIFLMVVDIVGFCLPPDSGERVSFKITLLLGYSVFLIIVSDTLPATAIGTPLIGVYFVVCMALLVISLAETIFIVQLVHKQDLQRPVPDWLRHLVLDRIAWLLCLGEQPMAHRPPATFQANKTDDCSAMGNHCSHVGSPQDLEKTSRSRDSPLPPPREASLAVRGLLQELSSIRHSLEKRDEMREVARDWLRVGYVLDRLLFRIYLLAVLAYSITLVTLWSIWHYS
Description: Inhibitory Effect on von Bezold-Jarisch Reflex (Anti-serotonin S3 Activity)
This test was carried out following the method of Fozard, et al. [cf. Arch. […] Male Wister rats weighing 250-350 g were anesthetized with urethane (1.5 g/kg, intraperitoneal) and set on their backs. Electrocardiogram (lead II) and a heart rate on the animals were recorded on inkwriting oscillograph via a biophysical amplifier and pulse rate tachometer, respectively. […] A fixed amount of 2-methylserotonin was repeatedly administered at 15-minute intervals until stable responses were obtained, and then a test compound was administered intravenously, 3 minutes before administration of 2-methylserotonin.

[7] = biological target: T1, serotonin S3 (5-HT3) receptor; assay: Serotonin S3 receptor-binding (in vitro receptor binding assay, [3H] quipazine); design: Crude synaptosome fractions prepared from rat brain were used as receptor samples; from tissue; host or cells: rat brain, crude synaptosome fraction
Description: as §1, §2

[8] = dog, oral, 2 hours before apomorphine hydrochloride 0.3 mg/kg s.c., emetic episodes within 1 hour
[9] = ferret, oral, 30 minutes before cisplatin 10 mg/kg i.v., emetic episodes within 3 hours
[10] = dog, oral, 30 minutes before cisplatin 3 mg/kg i.v., emetic episodes within 5 hours

Dopamine D2 receptor, sequence (P61169 whole entry): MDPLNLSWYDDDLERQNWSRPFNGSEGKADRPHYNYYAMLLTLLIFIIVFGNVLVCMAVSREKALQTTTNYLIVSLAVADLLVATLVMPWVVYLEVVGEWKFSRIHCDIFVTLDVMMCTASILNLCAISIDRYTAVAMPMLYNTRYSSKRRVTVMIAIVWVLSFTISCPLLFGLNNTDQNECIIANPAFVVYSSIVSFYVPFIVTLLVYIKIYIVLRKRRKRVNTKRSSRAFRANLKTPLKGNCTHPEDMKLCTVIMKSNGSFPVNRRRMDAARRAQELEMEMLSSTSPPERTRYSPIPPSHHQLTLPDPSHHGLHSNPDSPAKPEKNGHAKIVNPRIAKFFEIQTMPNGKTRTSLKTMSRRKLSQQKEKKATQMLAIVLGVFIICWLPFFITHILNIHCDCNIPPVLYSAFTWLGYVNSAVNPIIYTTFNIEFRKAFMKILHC

Compound | ED50 [1, 8] [mg/kg] | ED50 [2, 9] [mg/kg] | ED50 [3, 10] [mg/kg] | ED50 at 2 h [4] [mg/kg] | IC50 [5] [µM] | ED50 [6] [mg/kg] | IC50 ([7]; crude synaptosome fractions from rat brain, [3H] quipazine (S3), read-out: IC50 S3) [µM] | ED50 ([1]; po, 2 h) [mg/kg] | ED50 ([2]; po) [mg/kg] | ED50 ([3]; po) [mg/kg] | IC50 [7] [µM]
CCN1CCN(C)C[C@@H](NC(=O)c2cc(Br)c(NC)nc2OC)C1.O=C(O)/C=C/C(=O)O.O=C(O)/C=C/C(=O)O [Example 1, (R)-5-bromo-N-(1-ethyl-4-methylhexahydro-1H-1,4-diazepin-6-yl)-2-methoxy-6-methylamino-3-pyridinecarboxamide Difumarate] | 0.19 | 0.03 | 0.29 | 48.5 | 0.0117 | 0.0019 | 0.001 | – | – | – | –
O=c1[nH]c2ccccc2n1CCCN1CCC(n2c(=O)[nH]c3cc(Cl)ccc32)CC1 [domperidone, 5-chloro-1-[1-[3-(2,3-dihydro-2-oxo-1H-benzimidazol-1-yl)propyl]-4-piperidinyl]-1,3-dihydro-2H-benzimidazol-2-one] | – | – | – | – | – | – | – | 0.02 | > 10 | > 3 | –
CN1C2CCCC1CC(NC(=O)c1nn(C)c3ccccc13)C2 (stereo not drawn) [granisetron hydrochloride, endo-1-methyl-N-(9-methyl-9-azobicyclo-[3.3.1]non-3-yl)-1H-indazole-3-carboxamide hydrochloride] | – | – | – | – | > 100 | 0.00026 | – | – | – | – | –
CCN(CC)CCNC(=O)c1cc(Cl)c(N)cc1OC.Cl.Cl.O [metoclopramide hydrochloride, 4-amino-5-chloro-N-[2-(diethylamino)ethyl]-2-methoxybenzamide dihydrochloride monohydrate] | 0.45 | 0.98 | 3.96 | 22.4 | – | 0.181 | – | – | – | – | 0.88
Cc1nccn1CC1CCc2c(c3ccccc3n2C)C1=O.Cl (centres unmarked) [ondansetron hydrochloride, 1,2,3,9-tetrahydro-9-methyl-3-[(2-methyl-1H-imidazol-1-yl)methyl]-4H-carbazol-4-one hydrochloride] | > 10 | 0.1 | 0.16 | – | > 100 | 0.0011 | – | – | – | – | –
